Reference: patent publication US20200239530A1, “COMPOUNDS AND METHODS OF MODULATING PROTEIN DEGRADATION” (Vividion Therapeutics, Inc., priority 2017, published 2020)

Columns and labels:
Experiment in all cases: Cysteine liganding, probe competition
Assay type in all cases: binding
[1] = target: T1, TRIM56 E3 ubiquitin-protein ligase TRIM56 (Homo sapiens, UniProt Q9BRZ2)
T1 construct: Cells were resuspended in cold PBS on ice and sonicated with a probe sonicator to achieve lysis; endogenous in cells
T1 sequence (Q9BRZ2 1-755): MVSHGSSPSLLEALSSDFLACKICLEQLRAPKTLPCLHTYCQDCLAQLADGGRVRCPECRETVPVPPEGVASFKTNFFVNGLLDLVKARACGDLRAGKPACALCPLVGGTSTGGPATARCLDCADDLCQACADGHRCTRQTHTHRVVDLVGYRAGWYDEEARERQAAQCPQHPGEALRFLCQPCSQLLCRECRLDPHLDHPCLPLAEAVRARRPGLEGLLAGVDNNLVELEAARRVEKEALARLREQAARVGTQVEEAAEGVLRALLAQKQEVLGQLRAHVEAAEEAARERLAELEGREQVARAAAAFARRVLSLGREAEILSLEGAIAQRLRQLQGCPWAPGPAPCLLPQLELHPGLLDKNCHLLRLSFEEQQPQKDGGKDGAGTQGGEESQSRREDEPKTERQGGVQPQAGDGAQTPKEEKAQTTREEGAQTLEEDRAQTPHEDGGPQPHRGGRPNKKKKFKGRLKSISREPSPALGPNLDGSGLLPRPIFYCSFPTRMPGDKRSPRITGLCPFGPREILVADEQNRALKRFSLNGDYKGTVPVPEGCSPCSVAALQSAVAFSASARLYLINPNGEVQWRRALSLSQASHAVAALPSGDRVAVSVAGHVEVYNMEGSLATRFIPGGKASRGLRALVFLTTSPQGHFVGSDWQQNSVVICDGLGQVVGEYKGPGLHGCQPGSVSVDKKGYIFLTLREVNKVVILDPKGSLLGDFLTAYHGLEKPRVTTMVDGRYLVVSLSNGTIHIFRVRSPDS
In short: (§1)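 Probe competition in native proteome: 5 mg/ml lysate, compound 1 hr 25° C, then desthiobiotin iodoacetamide (10 mM stock) 1 hr 25° C; acetone ppt, urea/DTT reduction, iodoacetamide alkylation, trypsin, streptavidin pull-down.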

[2] = target: T2, ATG16L1 Autophagy-related protein 16-1 (Homo sapiens, UniProt Q676U5)
T2 construct: 200 μL of lysate containing 5 mg/ml proteome was treated with 2 μL of 100× compound stock; endogenous in cells
T2 sequence (Q676U5 whole entry): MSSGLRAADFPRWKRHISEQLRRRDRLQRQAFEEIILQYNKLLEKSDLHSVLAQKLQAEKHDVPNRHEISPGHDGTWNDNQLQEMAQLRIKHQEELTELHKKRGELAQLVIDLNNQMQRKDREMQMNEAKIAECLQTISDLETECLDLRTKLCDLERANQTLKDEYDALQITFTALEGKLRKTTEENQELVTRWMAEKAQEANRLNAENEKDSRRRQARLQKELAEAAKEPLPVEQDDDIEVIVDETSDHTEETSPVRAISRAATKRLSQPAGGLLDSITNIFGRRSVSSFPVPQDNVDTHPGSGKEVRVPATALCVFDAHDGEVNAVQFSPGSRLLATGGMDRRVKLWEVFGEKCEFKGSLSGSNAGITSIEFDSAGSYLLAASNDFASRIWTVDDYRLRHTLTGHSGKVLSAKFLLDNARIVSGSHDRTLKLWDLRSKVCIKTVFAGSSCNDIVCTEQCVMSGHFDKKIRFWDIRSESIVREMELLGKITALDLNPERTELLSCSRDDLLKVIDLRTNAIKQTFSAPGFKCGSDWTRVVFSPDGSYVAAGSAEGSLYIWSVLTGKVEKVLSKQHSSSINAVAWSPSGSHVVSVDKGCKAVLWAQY
In short: as §1

[3] = target: T3, RPUSD3 RNA pseudouridylate synthase domain-containing pro (Homo sapiens, UniProt Q6P087)
T3 construct: Cells were resuspended in cold PBS on ice and sonicated with a probe sonicator to achieve lysis; endogenous in cells
T3 sequence (Q6P087 26-351): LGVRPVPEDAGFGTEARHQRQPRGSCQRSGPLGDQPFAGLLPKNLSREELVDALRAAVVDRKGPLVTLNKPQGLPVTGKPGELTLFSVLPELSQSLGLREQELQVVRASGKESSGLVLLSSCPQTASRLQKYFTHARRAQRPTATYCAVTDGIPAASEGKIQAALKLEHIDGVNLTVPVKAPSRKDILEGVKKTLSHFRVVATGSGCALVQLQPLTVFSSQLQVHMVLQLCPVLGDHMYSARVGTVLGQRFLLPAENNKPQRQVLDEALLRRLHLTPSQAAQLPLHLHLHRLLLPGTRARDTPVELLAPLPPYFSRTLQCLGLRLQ
In short: as §1

| SMILES | Liganded ([1]; TRIM56 Res# 338, uniprot Q9BRZ2) | Liganded ([2]; ATG16L1 Res# 145, uniprot Q676U5) | Liganded ([3]; RPUSD3 Res# 147, uniprot Q6P087) | KB03_500 uM_percent_inhibition ([1]; 500 uM, UniProt Q9BRZ2) [%] | Liganded ([1]; TRIM56 Res# 36, uniprot Q9BRZ2) | 500 Max ([1]; uniprot Q9BRZ2) | 500 ave ([1]; uniprot Q9BRZ2) | 100 Max ([2]; uniprot Q676U5) | 100 ave ([2]; uniprot Q676U5) | 500 Max ([2]; uniprot Q676U5) | 500 ave ([2]; uniprot Q676U5) | 100 Max ([3]; uniprot Q6P087) | 100 ave ([3]; uniprot Q6P087) | 500 Max ([3]; uniprot Q6P087) | 500 ave ([3]; uniprot Q6P087) |
| --- | --- | --- | --- | --- | --- | --- | --- | --- | --- | --- | --- | --- | --- | --- | --- |
| COc1ccc2c(c1)CCCN2C(=O)CCl [KB02] | YES | YES | YES | – | – | – | – | – | – | – | – | – | – | – | – |
| O=C(CCl)Nc1cc(C(F)(F)F)cc(C(F)(F)F)c1 [KBO3] | – | – | – | 93 | YES | 78.3 | 78.3 | −47.09 | −47.09 | 18.73 | 18.73 | 14.63 | 9.07 | 49.47 | 49.47 |
